≈ marks a conversion by molar mass, not a printed value.
Assays:
[1] = Inhibition of NS5A in HCV genotype-1a infected in human HuH7 cells by luciferase reporter gene assay; type: cell-based, Hepatitis C virus subtype 1a; conditions: Hepatitis C virus, Huh-7
[2] = Inhibition of NS5A in HCV genotype-1b infected in human HuH7 cells by luciferase reporter gene assay; type: cell-based, Hepatitis C virus subtype 1b; conditions: Hepatitis C virus, Huh-7
[3] = Solubility of the compound at pH 7.4 by UV detection method; type: physicochemical; conditions: buffer
[4] = Volume of distribution at steady state in Sprague-Dawley rat at 2 mg/kg, iv; type: ADME, organism-based; parameters: dose 2 mg/kg, route intravenous; conditions: in vivo, read-out: Vdss
[5] = Drug uptake in Sprague-Dawley rat liver at 10 mg/kg, po after 4 hrs; type: ADME, organism-based; parameters: dose 10 mg/kg, route oral; conditions: read-out: Drug uptake
[6] = Plasma concentration in Sprague-Dawley rat at 10 mg/kg, po after 4 hrs; type: ADME, organism-based; parameters: dose 10 mg/kg, route oral
[7] = Cmax in Sprague-Dawley rat at 10 mg/kg, po; type: ADME, organism-based; parameters: dose 10 mg/kg, route oral; conditions: in vivo
[8] = AUClast in Sprague-Dawley rat at 10 mg/kg, po; type: ADME, organism-based; parameters: time 0 - last, dose 10 mg/kg, route oral; conditions: plasma
[9] = Tmax in Sprague-Dawley rat at 10 mg/kg, po; type: ADME, organism-based; parameters: dose 10 mg/kg, route oral; conditions: in vivo
[10] = Half life in Sprague-Dawley rat at 2 mg/kg, iv; type: ADME, organism-based; parameters: dose 2 mg/kg, route intravenous; conditions: in vivo
[11] = Oral bioavailability in Sprague-Dawley rat at 10 mg/kg; type: ADME, organism-based; conditions: in vivo
[12] = AUClast in Sprague-Dawley rat at 2 mg/kg, iv; type: ADME, organism-based; parameters: time 0 - last, dose 2 mg/kg, route intravenous; conditions: plasma
[13] = Clearance in Sprague-Dawley rat at 2 mg/kg, iv; type: ADME, organism-based; parameters: dose 2 mg/kg, route intravenous; conditions: in vivo
[14] = Volume of distribution at steady state in Sprague-Dawley rat at 1 mg/kg, iv; type: ADME, organism-based; parameters: dose 1 mg/kg, route intravenous; conditions: in vivo, read-out: Vdss
[15] = Cmax in Sprague-Dawley rat at 5 mg/kg, po; type: ADME, organism-based; parameters: dose 5 mg/kg, route oral; conditions: in vivo
[16] = Oral bioavailability in Sprague-Dawley rat at 5 mg/kg; type: ADME, organism-based; conditions: in vivo
[17] = Half life in Sprague-Dawley rat at 1 mg/kg, iv; type: ADME, organism-based; parameters: dose 1 mg/kg, route intravenous; conditions: in vivo
[18] = Clearance in Sprague-Dawley rat at 1 mg/kg, iv; type: ADME, organism-based; parameters: dose 1 mg/kg, route intravenous; conditions: in vivo
[19] = Tmax in Sprague-Dawley rat at 5 mg/kg, po; type: ADME, organism-based; parameters: dose 5 mg/kg, route oral; conditions: in vivo
[20] = Plasma concentration in Sprague-Dawley rat […] at 5 mg/kg, po after 4 hrs; type: ADME, organism-based; parameters: dose 5 mg/kg, route oral
[21] = AUClast in Sprague-Dawley rat at 5 mg/kg, po; type: ADME, organism-based; parameters: time 0 - last, dose 5 mg/kg, route oral; conditions: plasma
[22] = Drug uptake in Sprague-Dawley rat liver at 5 mg/kg, po after 4 hrs; type: ADME, organism-based; parameters: dose 5 mg/kg, route oral; conditions: read-out: Drug uptake
[23] = AUClast in Sprague-Dawley rat at 1 mg/kg, iv; type: ADME, organism-based; parameters: time 0 - last, dose 1 mg/kg, route intravenous; conditions: plasma
[24] = Plasma concentration in Sprague-Dawley rat […] at 100 mg/kg, po after 4 hrs; type: ADME, organism-based; parameters: dose 100 mg/kg, route oral
[25] = Cmax in Sprague-Dawley rat at 100 mg/kg, po; type: ADME, organism-based; parameters: dose 100 mg/kg, route oral; conditions: in vivo
[26] = Cmax in cynomolgus monkey at 5 mg/kg, po; type: ADME, organism-based, Macaca fascicularis; parameters: dose 5 mg/kg, route oral; conditions: in vivo
[27] = Tmax in Sprague-Dawley rat at 100 mg/kg, po; type: ADME, organism-based; parameters: dose 100 mg/kg, route oral; conditions: in vivo
[28] = Clearance in cynomolgus monkey at 1 mg/kg, iv; type: ADME, organism-based, Macaca fascicularis; parameters: dose 1 mg/kg, route intravenous; conditions: in vivo
[29] = Volume of distribution at steady state in cynomolgus monkey at 1 mg/kg, iv; type: ADME, organism-based, Macaca fascicularis; parameters: dose 1 mg/kg, route intravenous; conditions: in vivo, read-out: Vdss
[30] = Half life in cynomolgus monkey at 1 mg/kg, iv; type: ADME, organism-based, Macaca fascicularis; parameters: dose 1 mg/kg, route intravenous; conditions: in vivo
[31] = AUClast in cynomolgus monkey at 5 mg/kg, po; type: ADME, organism-based, Macaca fascicularis; parameters: time 0 - last, dose 5 mg/kg, route oral; conditions: plasma
[32] = AUClast in cynomolgus monkey at 1 mg/kg, iv; type: ADME, organism-based, Macaca fascicularis; parameters: dose 1 mg/kg, route intravenous, time 0 - last; conditions: plasma
[33] = Tmax in cynomolgus monkey at 5 mg/kg, po; type: ADME, organism-based, Macaca fascicularis; parameters: dose 5 mg/kg, route oral; conditions: in vivo
[34] = AUClast in Sprague-Dawley rat at 100 mg/kg, po; type: ADME, organism-based; parameters: time 0 - last, dose 100 mg/kg, route oral; conditions: plasma
[35] = Oral bioavailability in cynomolgus monkey at 5 mg/kg; type: ADME, organism-based, Macaca fascicularis; conditions: in vivo

COC(=O)N[C@H](C(=O)N(C)[C@@H](C)c1ncc(C2CCN(c3c(F)cc(-c4cnc([C@@H]5CCCN5C(=O)[C@@H](NC(=O)OC)C(C)C)[nH]4)cc3F)CC2)[nH]1)C(C)C
EC50 [1]: > 100 nM
EC50 [2]: 0.54 nM

COC(=O)N[C@H](C(=O)N1CCC[C@H]1c1ncc(-c2ccc(-c3ccc(-c4cnc([C@@H]5CCCN5C(=O)[C@@H](NC(=O)OC)C(C)C)[nH]4)cc3)cc2)[nH]1)C(C)C [DACLATASVIR]
EC50 [1]: 0.14 nM
EC50 [2]: 0.023 nM
solubility [3]: 6.8 µg/mL (≈ 9.2 µM)

COC(=O)N[C@H](C(=O)N1CCC[C@H]1c1ncc([C@H]2CC[C@H](c3ccc(-c4cnc([C@@H]5CCCN5C(=O)[C@H](NC(=O)OC)c5ccccc5)[nH]4)cc3)CC2)[nH]1)C(C)C
EC50 [1]: 4.4 nM
EC50 [2]: 0.088 nM

COC(=O)N[C@@H](C(=O)N1CCC[C@H]1c1ncc(-c2ccc(N3CCC(c4cnc([C@@H]5CCCN5C(=O)[C@H](NC(=O)OC)c5ccccc5)[nH]4)CC3)c(F)c2)[nH]1)c1ccccc1
EC50 [1]: 38 nM
Vd [4]: 1.39 L/kg
EC50 [2]: 0.095 nM
concentration at 4 h [5]: 4 ng/mL
concentration at 4 h [6]: 8.4 ng/mL
Cmax [7]: 41.5 ng/mL
AUC(0-t) [8]: 109 ng·h/mL
Tmax [9]: 0.67 h
half-life [10]: 1.9 h
bioavailability [11]: 1.2%
AUC(0-t) [12]: 2060 ng·h/mL
clearance [13]: 17.7 mL/min/kg

COC(=O)N[C@H](C(=O)N1CCC[C@H]1c1ncc(-c2ccc([C@H]3CC[C@](C)(c4cnc([C@@H]5CCCN5C(=O)[C@@H](NC(=O)OC)C(C)C)[nH]4)CC3)cc2)[nH]1)C(C)C
EC50 [1]: > 100 nM
EC50 [2]: 1.3 nM

COC(=O)N[C@H](C(=O)N[C@H](c1ncc(C2CCN(c3c(F)cc(-c4cnc([C@@H]5CCCN5C(=O)[C@@H](NC(=O)OC)C(C)C)[nH]4)cc3F)CC2)[nH]1)C(C)C)C(C)C
EC50 [1]: 25 nM
EC50 [2]: 0.07 nM

COC(=O)N[C@H](C(=O)N1CCC[C@H]1c1ncc(-c2ccc([C@H]3CC[C@H](c4cnc([C@@H]5CCCN5C(=O)[C@@H](NC(=O)OC)C(C)C)[nH]4)CC3)cc2)[nH]1)C(C)C
EC50 [1]: 2 nM
Vd [14]: 1.53 L/kg
Cmax [15]: 554 ng/mL
EC50 [2]: 0.05 nM
bioavailability [16]: 44.2%
half-life [17]: 1.33 h
clearance [18]: 23.7 mL/min/kg
Tmax [19]: 0.67 h
concentration at 4 h [20]: 108 ng/mL
AUC(0-t) [21]: 1540 ng·h/mL
solubility [3]: 66.3 µg/mL (≈ 89 µM)
concentration at 4 h [22]: 665 ng/mL
AUC(0-t) [23]: 706 ng·h/mL

COC(=O)N[C@@H](C(=O)N1CCC[C@H]1c1ncc(-c2cc(F)c(N3CCC(c4cnc([C@@H]5CCCN5C(=O)[C@H](NC(=O)OC)C(C)C)[nH]4)CC3)c(F)c2)[nH]1)C(C)C
EC50 [1]: > 100 nM
EC50 [2]: > 3.7 nM

COC(=O)N[C@H](C(=O)N[C@@H](C)c1ncc(C2CCN(c3c(F)cc(-c4cnc([C@@H]5CCCN5C(=O)[C@@H](NC(=O)OC)C(C)C)[nH]4)cc3F)CC2)[nH]1)C(C)C
EC50 [1]: 68 nM
EC50 [2]: 0.14 nM

COC(=O)N[C@H](C(=O)N1CCC[C@H]1c1ncc(-c2ccc(C34CCC(c5cnc([C@@H]6CCCN6C(=O)[C@@H](NC(=O)OC)C(C)C)[nH]5)(CC3)CC4)cc2)[nH]1)C(C)C
EC50 [1]: 1.4 nM
concentration at 4 h [24]: 15800 ng/mL
Vd [14]: 1.31 L/kg
Cmax [25]: 19100 ng/mL
Cmax [15]: 980 ng/mL
EC50 [2]: 0.06 nM
Cmax [26]: 1400 ng/mL
Tmax [27]: 2 h
bioavailability [16]: 124%
half-life [17]: 1.2 h
clearance [28]: 6.5 mL/min/kg
Vd [29]: 0.64 L/kg
half-life [30]: 1.24 h
AUC(0-t) [31]: 7930 ng·h/mL
clearance [18]: 15.7 mL/min/kg
AUC(0-t) [32]: 2570 ng·h/mL
Tmax [19]: 1.17 h
Tmax [33]: 4 h
concentration at 4 h [20]: 653 ng/mL
AUC(0-t) [21]: 6580 ng·h/mL
solubility [3]: 45 µg/mL (≈ 58.4 µM)
AUC(0-t) [34]: 242000 ng·h/mL
bioavailability [35]: 61.1%
concentration at 4 h [22]: 2590 ng/mL
AUC(0-t) [23]: 1050 ng·h/mL

COC(=O)N[C@@H](C(=O)N1CCC[C@H]1c1ncc(-c2cc(F)c(N3CCC(c4cnc([C@@H]5COCCN5C(=O)[C@H](NC(=O)OC)c5ccccc5)[nH]4)CC3)c(F)c2)[nH]1)c1ccccc1
EC50 [1]: 38 nM
EC50 [2]: 0.05 nM

COC(=O)N[C@@H](C(=O)N1CCC[C@H]1c1ncc(-c2ccc([C@H]3CC[C@H](c4cnc([C@@H]5CCCN5C(=O)[C@@H](c5ccccc5)N(C)C)[nH]4)CC3)cc2)[nH]1)c1ccccc1
EC50 [1]: 1.4 nM
EC50 [2]: 0.11 nM
Cmax [7]: 54.1 ng/mL
AUC(0-t) [8]: 255 ng·h/mL
Tmax [9]: 1.67 h

COC(=O)N[C@H](C(=O)N1CCC[C@H]1c1ncc(-c2ccc([C@H]3CC[C@H](c4cnc([C@@H]5CCCN5C(=O)[C@@H](NC(=O)OC)C5CC5)[nH]4)CC3)cc2)[nH]1)C1CC1
EC50 [1]: 4.5 nM
EC50 [2]: 0.86 nM

Source: ChEMBL document CHEMBL3351465, “Discovery of functionalized bisimidazoles bearing cyclic aliphatic-phenyl motifs as HCV NS5A inhibitors” (Bioorg Med Chem Lett, 2014)
